Results reported in patent publication US10617695B2, “Ophthalmic compositions containing alcaftadine” (Vistakon Pharmaceuticals, LLC, priority 2006, dated 2020).

Tests used:
[1] = test system: E-cadherin; assay: Integrity of conjunctival epithelium after conjunctival allergen challenge: E-cadherin expression (confocal microscopy); assay type: in vivo, mice
Protocol: To investigate the ability of alcaftadine to maintain the integrity of conjunctival epithelium, changes in the expression of the tight junction proteins ZO-1 and E-cadherin (an induction for E-cadherin and qualitative change-from focal to diffuse for ZO-1) were evaluated following specific conjunctival allergen challenge. These changes are associated with an increased permeability of the conjunctival and other epithelial tissues. This in vivo experiment examined what effect alcaftadine (topical administration 1 and 2 hours pre-challenge) had on the modulation of these proteins.
Mice were sensitized with short ragweed (SRW) in aluminum hydroxide via intraperitoneal administration (Day 0, 7, and 15) and eye drop instillation (Day 8 and 15). On Day 20, mice were further sensitized with eye drops containing only SRW. On Day 27, the mice were treated topically with either 5 μL alcaftadine or vehicle at 1 and 2 hours prior to challenge. SRW was instilled topically to both eyes. The expression of these proteins in naive eyes were also monitored. Changes in the expression of the tight junction proteins ZO-1 and E-cadherin were observed 1-hour post conjunctival allergen challenge with SRW. The proteins were detected using FITC-conjugated monoclonal antibodies specific for ZO-1 and E-cadherin and were visualized by confocal microscopy (Ziess). […]

[2] = test system: guinea pigs systemically sensitized to rabbit skin squames and topically challenged with rabbit allergens; assay: Anti-allergic activity against acute-phase allergic conjunctivitis (edema and erythema) in sensitized guinea pigs; assay type: in vivo, guinea pig
Protocol: The effect of alcaftadine against acute-phase reactions of allergic conjunctivitis (edema and erythema) was compared to the effect of other known anti-allergens in guinea pigs that were systemically sensitized to rabbit skin squames and topically challenged 17 days later with rabbit allergens.
Anesthetized male albino guinea pigs (Dunkin-Hartley) weighing about 230 to 250 g were injected intramuscularly at the left quadriceps with 50 μl of purified rabbit allergens. The rabbit allergens consisted of Al(OH)3-adsorbed rabbit squames (Halab, Brussels, Belgium), which had been homogenized and washed clean of preservative (0.5% (V/V) phenol) with sterile physiologic saline.
Alcaftadine was […] administered to each eye in dosages ranging from 0.005 mg/kg to 1.0 mg/kg at 24 hours and 1 hour before challenge. Other test compounds included oxatomide, ketotifen, astemizole, cetirizine, loratadine and terfenadine, administered at dosages of 0.1 mg/kg and 1.0 mg/kg.
At day 17 post sensitization the left eye was challenged by instilling 25 μl of 100% normal rabbit serum. At the same time as the allergen challenge, the right eye was instilled with 25 μl of 1.5 mg/ml histamine dihydrochloride (98%, Sigma) dissolved in deionised, Millipore-filtered water.
Thirty minutes after challenge, edema and erythema were assessed in the tarsal and bulbar conjunctiva of both eyes and scored as absent (0), weak (1), moderate (2), severe (3), or very severe (4) by a trained technician.

[3] = biological target: T1, human histamine H4 receptor (Homo sapiens, UniProt Q9H3N8); assay: [3H]histamine competition binding to membranes of SK-N-MC cells transfected with human H4 receptor
T1 construct: express a reporter gene construct and the human H4 receptor full-coding region; expressed in transfected cells; host or cells: SK-N-MC cells with a CRE-beta-galactosidase reporter

[4] = biological target: T1, human histamine H4 receptor; assay: H4 receptor antagonist assay: shift of histamine EC50, Schild plot, in transfected SK-N-MC cells; assay type: cell-based
Protocol: Alcaftadine and 6,11-dihydro-11-(1-methyl-4-piperdinylidene)-5H-imidazo[2,1-b][3]benazepine-3-carboxylic acid (CAS #147083-93-0) were prepared at 10 mM in 100% dimethylsulfoxide (DMSO) for the binding assays and at 10 mM in Na/K phosphate buffer, pH 7.0, for the cellular assays. Cell pellets from SK-N-MC cells transfected with human H4 receptor were homogenized in 20 mM Tris-HCl/0.5 mM ethylendediaminetetraacetic acid (EDTA) pH 8.0 (TE buffer). Supernatants collected after centrifugation at 800 g were recentrifuged at 30,000 g for 30 min. Pellets were re-homogenized in TE buffer. […] Non-specific binding was defined with 100 μM cold histamine. […] Seven concentrations of compound were tested spanning 10^−11 to 10^−5 M with each concentration being run in triplicate. […] This assay was run twice and the results are reported as the average of the two runs. SK-N-MC cell lines were created that express a reporter gene construct and the human H4 receptor full-coding region. The reporter gene was β-galactosidase under the control of cyclic adenosine monophosphate (cAMP) responsive elements. Cells were plated in 96-well plates the night before the assay. Antagonists were added 10 min prior to the addition of histamine, which was added directly to the cell medium. Forskolin (5 μM final concentration) was added 10 min after the addition of histamine. Cells were returned to the incubator for 6 h at 37° C. The medium was then aspirated and cells were lysed with 25 μL of 0.1× assay buffer (10 mM sodium phosphate, pH 8, 0.2 mM MgSO4, 0.01 mM MnCl2) and incubated at room temperature for 10 min. […] Color was quantitated on a microplate reader at absorbance 570 nm. […]
To test whether alcaftadine or 6,11-dihydro-11-(1-methyl-4-piperdinylidene)-5H-imidazo[2,1-b][3]benazepine-3-carboxylic acid (CAS #147083-93-0) were antagonists of the H4 receptor, the ability of the compounds shift the EC50 of the histamine inhibition of forskolin-induced cAMP increases was assessed in SK-N-MC cells transfected with the human histamine H4 receptor. […]

Ki ([3]; average of two runs, 10 nM [3H]histamine, Cheng and Prusoff): 2.9 µM | pKi ([3]; compared with pA2): 5.5 | mode of action at the receptor ([4]; parallel and rightward shifts in the histamine dose response curves): competitive antagonist | pA2 ([4]; x-intercept of the Schild plot): 5.6
Structure (SMILES): CN1CCC(=C2c3ccccc3CCn3c(C=O)cnc32)CC1 [Alcaftadine, 6,11-dihydro-11-(1-methyl-4-piperidinylidene)-5H-imidazo[2,1-b][3]benzazepine-3-carboxaldehyde]
E-cadherin staining, alcaftadine treatment versus naive (negative control) ([1]; 5 μL topical at 1 and 2 hours prior to challenge, 1-hour post challenge): no or minimal difference | induction of E-cadherin expression ([1]; following specific conjunctival allergen challenge): inhibits the induction of E-cadherin expression | dose from which acute allergic symptoms were significantly alleviated ([2]; dosed 24 hours and 1 hour before challenge, edema and erythema scored 30 minutes after challenge): 0.1 mg/kg | potency compared with astemizole, cetirizine and loratadine ([2]; on an equivalent mg/kg basis): significantly more potent | potency compared with oxatomide, ketotifen and terfenadine ([2]; on an equivalent mg/kg basis): more potent
